Experimental findings from US10662204B2 (PFIZER INC., priority 2018, dated 2020) are described below.

Assay [1] has as its target T1, GDP-loaded KRAS (1-169) G12C, C51S, C80L, C118S (Homo sapiens, UniProt P01116, C118S/C51S/C80L/G12C).
T1 construct: GDP-loaded KRAS (1-169) G12C, C51S, C80L, C118S
As to the kind of experiment: Mass Spectrometry Reactivity Assay (MSRA): covalent adduct of compound and KRAS G12C, Percent Modification. In kind it is binding. The conditions noted are these: for MSRA (% modification) 5.0 μM 0.25 hr / MSRA (% modification) 5.0 μM 0.017 hr: 5.0 μM compound; for MSRA (% modification) 10 μM 0.25 hr / MSRA (% modification) 10 μM 0.50 hr: 10 μM compound. Put shortly: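 GDP-loaded KRAS(1-169) G12C/C51S/C80L/C118S at 5 μM in 25 mM Hepes pH 7.5, 200 mM NaCl, 5% glycerol incubated at RT with compound (typically 5 or 10 μM final, 1% DMSO). Quenched in formic acid at 1-60 min; intact-protein LC-TOF MS gives % modification = modified/(modified+unmodified).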

For assay [2], the target named is KRAS G12C (Homo sapiens, UniProt P01116, G12C). Nature of the assay: Cell Activity Assay: accumulation of GDP-bound KRAS G12C in MIAPaCa-2 cells (Raf-1 RBD capture, MSD readout). In kind it is cell-based. Set-up: endogenous in cells; host or cells: MIAPaCa-2. To be noted: 6 hours, assay limit is 30.00. In short, it runs like this:
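MIAPaCa-2 cells exposed 6 h at 37 °C to 3-fold compound dilutions (0.3% DMSO final), then lysed. Active GTP-KRAS captured on Raf-1 RBD-coated plates, detected with anti-pan-Ras and SULFO-TAG secondary by MSD electrochemiluminescence. Signal normalized to DMSO and maximum inhibition; IC50 from 4-parameter fit.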

Structures are written as SMILES.

On to `C=CC(=O)N1CCN(c2nc(OC[C@H]3CCCO3)nc3c(Oc4c(Cl)c(F)cc5[nH]ncc45)nccc23)CC1` [Example 06H, 1-(4-{8-[(5-chloro-6-fluoro-1H-indazol-4-yl)oxy]-2-[(2R)-tetrahydrofuran-2-ylmethoxy]pyrido[3,4-d]pyrimidin-4-yl}piperazin-1-yl)prop-2-en-1-one], for which, in assay [1], the “MSRA (% modification) 5.0 μM 0.25 hr” value worked out at 48% and the “MSRA (% modification) 10 μM 0.25 hr” value came to 60%. In assay [2], this molecule showed an IC50 of 0.611 µM.

In the case of `C=CC(=O)N1CCN(c2nc(OCCCN(C)C)nc3c(Oc4c(Cl)c(C)cc5[nH]ncc45)cc(Cl)cc23)CC1` [Example 12E, 1-(4-{6-chloro-8-[(5-chloro-6-methyl-1H-indazol-4-yl)oxy]-2-[3-(dimethylamino)propoxy]quinazolin-4-yl}piperazin-1-yl)prop-2-en-1-one], in assay [1], the “MSRA (% modification) 10 μM 0.50 hr” value was 79%. In assay [2], this molecule returned an IC50 of 0.835 µM.

Consider `C=CC(=O)N1CCN(c2nc(O[C@@H]3CCC[C@H]3N(C)C)nc3c(Oc4c(C)ccc5[nH]ncc45)nccc23)CC1` [Example 11B, 1-[4-(2-{[(1R,2R)-2-(dimethylamino)cyclopentyl]oxy}-8-[(5-methyl-1H-indazol-4-yl)oxy]pyrido[3,4-d]pyrimidin-4-yl)piperazin-1-yl]prop-2-en-1-one], for which the “MSRA (% modification) 10 μM 0.25 hr” value in assay [1] turned out to be 21%. In addition, the IC50 in assay [2] stood at 4.89 µM.

Take `C=CC(=O)N1CCN(c2nc(OC[C@@H]3CCCN3C)nc3c(Oc4c(C)c(Cl)cc5[nH]ncc45)nccc23)CC1` [Example 13B, 1-[4-(8-[(6-chloro-5-methyl-1H-indazol-4-yl)oxy]-2-{[(2S)-1-methylpyrrolidin-2-yl]methoxy}pyrido[3,4-d]pyrimidin-4-yl)piperazin-1-yl]prop-2-en-1-one]: in assay [1], the “MSRA (% modification) 5.0 μM 0.25 hr” value is 19% and the “MSRA (% modification) 10 μM 0.25 hr” value was 74%. Inhibition in assay [2] was half-maximal at 0.16 µM (IC50).

For `C=CC(=O)N1CCN(c2nc(O[C@@H]3CN(C)C[C@H]3C(F)(F)F)nc3c(Oc4c(Cl)c(F)cc5[nH]ncc45)nccc23)CC1` [Example 57I, 1-[4-(8-[(5-chloro-6-fluoro-1H-indazol-4-yl)oxy]-2-{[(3S,4R)-1-methyl-4-(trifluoro-methyl)pyrrolidin-3-yl]oxy}pyrido [3,4-d]pyrimidin-4-yl)piperazin-1-yl]prop-2-en-1-one], the “MSRA (% modification) 5.0 μM 0.017 hr” value in assay [1] is given as 22%. The molecule further came in with an IC50 in assay [2] of 0.024 µM.

Turning to `C=CC(=O)N1CCN(c2nc(NCC3CC(=O)N(C)C3)nc3c(Oc4c(C)ccc5[nH]ncc45)cccc23)CC1` (stereo not shown) [Example 04F, 4-[({4-(4-acryloylpiperazin-1-yl)-8-[(5-methyl-1H-indazol-4-yl)oxy]quinazolin-2-yl}amino)methyl]-1-methylpyrrolidin-2-one], the “MSRA (% modification) 10 μM 0.50 hr” value in assay [1] is 43%. Also, the half-inhibitory concentration (IC50) in assay [2] came to 7.28 µM.

Turning to `C=CC(=O)N1CCN(c2nc(OCc3cccnc3)nc3c(Oc4c(Cl)c(F)cc5[nH]ncc45)nccc23)CC1` [Example 07H, 1-(4-{8-[(5-chloro-6-fluoro-1H-indazol-4-yl)oxy]-2-(pyridin-3-ylmethoxy)pyrido[3,4-d]pyrimidin-4-yl}piperazin-1-yl)prop-2-en-1-one], in assay [1], the “MSRA (% modification) 5.0 μM 0.25 hr” value is given as 66% and the “MSRA (% modification) 10 μM 0.25 hr” value was 77%. The molecule also showed an IC50 in assay [2] of 0.285 µM.

Take `C=CC(=O)N1CCN(c2nc(OC[C@@H]3CCOC3)nc3c(Oc4c(Cl)c(F)cc5[nH]ncc45)nccc23)CC1` [Example 05H, 1-(4-{8-[(5-chloro-6-fluoro-1H-indazol-4-yl)oxy]-2-[(3R)-tetrahydrofuran-3-ylmethoxy]pyrido[3,4-d]pyrimidin-4-yl}piperazin-1-yl)prop-2-en-1-one]: in assay [1], the “MSRA (% modification) 5.0 μM 0.25 hr” value is 54% and the “MSRA (% modification) 10 μM 0.25 hr” value was 68%. The molecule further gave an IC50 in assay [2] of 0.414 µM.

Consider `C#CCN1C[C@@H](OC)[C@H](Oc2nc(N3CCN(C(=O)C=C)CC3)c3cc(Cl)nc(Oc4c(Cl)c(F)cc5[nH]ncc45)c3n2)C1` [Example 40G, 1-[4-(6-chloro-8-[(5-chloro-6-fluoro-1H-indazol-4-yl)oxy]-2-{[(3R,4R)-4-methoxy-1-(prop-2-yn-1-yl)pyrrolidin-3-yl]oxy}pyrido[3,4-d]pyrimidin-4-yl)piperazin-1-yl]prop-2-en-1-one], for which the “MSRA (% modification) 5.0 μM 0.017 hr” value in assay [1] is listed as 83%. Further, inhibition in assay [2] was half-maximal at 0.008 µM (IC50).

Regarding `C=CC(=O)N1CCN(c2nc(O[C@@H]3CN(C)C[C@H]3CC)nc3c(Oc4c(Cl)c(F)cc5[nH]ncc45)nc(Cl)cc23)CC1` (racemic) [Example 28G, rac-1-[4-(6-chloro-8-[(5-chloro-6-fluoro-1H-indazol-4-yl)oxy]-2-{[(3S,4R)-4-ethyl-1-methylpyrrolidin-3-yl]oxy}pyrido[3,4-d]pyrimidin-4-yl)piperazin-1-yl]prop-2-en-1-one], the “MSRA (% modification) 5.0 μM 0.017 hr” value in assay [1] is on record as 60%. Further, the IC50 in assay [2] was found to be 0.037 µM.

`C=CC(=O)N1CCN(c2ncnc3c(Oc4cc(O)cc5ccccc45)nc(C(F)(F)F)cc23)CC1` [Example 01, 1-(4-{8-[(3-hydroxynaphthalen-1-yl)oxy]-6-(trifluoromethyl)pyrido[3,4-d]pyrimidin-4-yl}piperazin-1-yl)prop-2-en-1-one]: the “MSRA (% modification) 10 μM 0.50 hr” value in assay [1] was found to be 27%. The IC50 in assay [2] was > 30 µM.

Take `C=CC(=O)N1CCN(c2ncnc3c(Oc4c(Cl)c(Cl)cc5[nH]ncc45)nc(Cl)cc23)CC1` [Example 30A, 1-(4-{6-chloro-8-[(5,6-dichloro-1H-indazol-4-yl)oxy]pyrido[3,4-d]pyrimidin-4-yl}piperazin-1-yl)prop-2-en-1-one]: in assay [1], the “MSRA (% modification) 10 μM 0.50 hr” value amounted to 67%. For the same molecule, the IC50 in assay [2] stood at 0.247 µM.

Consider `C=CC(=O)N1CCN(c2nc(OC[C@H]3C[C@@H](F)CN3C)nc3c(Oc4c(Cl)c(F)cc5[nH]ncc45)nc(Cl)cc23)CC1` [Example 22G, 1-[4-(6-chloro-8-[(5-chloro-6-fluoro-1H-indazol-4-yl)oxy]-2-{[(2R,4R)-4-fluoro-1-methylpyrrolidin-2-yl]methoxy}pyrido[3,4-d]pyrimidin-4-yl)piperazin-1-yl]prop-2-en-1-one], for which the “MSRA (% modification) 10 μM 0.25 hr” value in assay [1] turned out to be 81%. In addition, the IC50 in assay [2] is 0.072 µM.

`C=CC(=O)N1CCN(c2nc(O[C@@H]3CN(C)C[C@H]3OC)nc3c(Oc4c(Cl)c(F)cc5[nH]ncc45)cccc23)CC1` [Example 01L, 1-[4-(8-[(5-chloro-6-fluoro-1H-indazol-4-yl)oxy]-2-{[(3R,4R)-4-methoxy-1-methylpyrrolidin-3-yl]oxy}quinazolin-4-yl)piperazin-1-yl]prop-2-en-1-one]: the “MSRA (% modification) 5.0 μM 0.017 hr” value in assay [1] is on record as 51%. For the same molecule, in assay [2], the IC50 is 0.038 µM.

Turning to `C=CC(=O)N1CCN(c2nc(OCC3CCC(=O)N3C)nc3c(Oc4c(Cl)c(F)cc5[nH]ncc45)nc(Cl)cc23)CC1` (stereo not shown) [Example 14G, 5-[({4-(4-acryloylpiperazin-1-yl)-6-chloro-8-[(5-chloro-6-fluoro-1H-indazol-4-yl)oxy]pyrido[3,4-d]pyrimidin-2-yl}oxy)methyl]-1-methylpyrrolidin-2-one], in assay [1], the “MSRA (% modification) 5.0 μM 0.25 hr” value is reported as 78% and the “MSRA (% modification) 10 μM 0.25 hr” value is given as 79%. Also, the IC50 in assay [2] stood at 0.401 µM.

With `C=CC(=O)N1CCN(c2nc(O[C@@H]3COC[C@H]3N(C)C)nc3c(Oc4c(Cl)c(F)cc5[nH]ncc45)nc(Cl)cc23)CC1` (racemic) [Example 30G, rac-1-[4-(6-chloro-8-[(5-chloro-6-fluoro-1H-indazol-4-yl)oxy]-2-{[(3S,4R)-4-(dimethylamino)oxolan-3-yl]oxy}pyrido[3,4-d]pyrimidin-4-yl)piperazin-1-yl]prop-2-en-1-one], the “MSRA (% modification) 5.0 μM 0.017 hr” value in assay [1] amounted to 53%. In assay [2], the IC50 was found to be 0.026 µM.

In the case of `C=CC(=O)N1CCN(c2nc(OCc3cscn3)nc3c(Oc4c(C)ccc5[nH]ncc45)nccc23)CC1` [Example 22F, 1-(4-{8-[(5-methyl-1H-indazol-4-yl)oxy]-2-(1,3-thiazol-4-ylmethoxy)pyrido[3,4-d]pyrimidin-4-yl}piperazin-1-yl)prop-2-en-1-one], the “MSRA (% modification) 5.0 μM 0.25 hr” value in assay [1] came to 33%. In assay [2], this molecule registered an IC50 of 0.535 µM.

As to `C=CC(=O)N1CCN(c2nc(O[C@@H]3CCN(CCOC)C[C@H]3C)nc3c(Oc4c(Cl)c(F)cc5[nH]ncc45)nc(Cl)cc23)CC1` (racemic) [Example 33G, rac-1-[4-(6-chloro-8-[(5-chloro-6-fluoro-1H-indazol-4-yl)oxy]-2-{[(3R,4R)-1-(2-methoxyethyl)-3-methylpiperidin-4-yl]oxy}pyrido[3,4-d]pyrimidin-4-yl)piperazin-1-yl]prop-2-en-1-one], the “MSRA (% modification) 5.0 μM 0.017 hr” value in assay [1] was found to be 51%. Inhibition in assay [2] was half-maximal at 0.052 µM (IC50).

`C=CC(=O)N1CCN(c2nc(O[C@@H]3CN(C)C[C@@H]3C)nc3c(Oc4c(Cl)c(F)cc5[nH]ncc45)nc(Cl)cc23)CC1` (racemic) [Example 31G, rac-1-[4-(6-chloro-8-[(5-chloro-6-fluoro-1H-indazol-4-yl)oxy]-2-{[(3R,4R)-1,4-dimethylpyrrolidin-3-yl]oxy}pyrido[3,4-d]pyrimidin-4-yl)piperazin-1-yl]prop-2-en-1-one]: in assay [1], the “MSRA (% modification) 5.0 μM 0.017 hr” value came to 26%. In addition, the IC50 in assay [2] turned out to be 0.135 µM.

One may read the IC50 as the concentration that inhibits the measured activity by half. A high value points to lower potency.
